Bridge positions count the residues as written; N and C are the ends. Square brackets hold non-standard residues; d marks the D form. Peptide text beside a SMILES is read from it. Trp(1-CH2COOH) = N[C@@H](Cc1cn(CC(=O)O)c2ccccc12)C(=O)O; Phe(3,4-F2) = N[C@@H](Cc1ccc(F)c(F)c1)C(=O)O; Bip = N[C@@H](Cc1ccc(-c2ccccc2)cc1)C(=O)O; Phe(3-Cl) = N[C@@H](Cc1cccc(Cl)c1)C(=O)O; 1Nal = N[C@@H](Cc1cccc2ccccc12)C(=O)O; d(hPhe) = N[C@H](CCc1ccccc1)C(=O)O; NMeD = CN[C@@H](CC(=O)O)C(=O)O; NMeA = CN[C@@H](C)C(=O)O; Aib = CC(C)(N)C(=O)O
Biological target: T1, PE-labeled human PD-L1-Ig binding to Jurkat cell line over-expressing human PD-1 (Jurkat-PD-1) (Homo sapiens, UniProt Q15116)
T1 construct: expressed in transfected cells; host or cells: Jurkat
Assay: Jurkat-PD-1 Cell Binding High-Content Screening Assay (CBA): Method 1
Conditions: Jurkat-hPD-1 cells, PE-labeled PD-L1-Ig 20 nM final; read-out: Jurkat HPDL1 PD1 IC50 (uM) (Method 1)

T1 sequence (Q15116 25-288): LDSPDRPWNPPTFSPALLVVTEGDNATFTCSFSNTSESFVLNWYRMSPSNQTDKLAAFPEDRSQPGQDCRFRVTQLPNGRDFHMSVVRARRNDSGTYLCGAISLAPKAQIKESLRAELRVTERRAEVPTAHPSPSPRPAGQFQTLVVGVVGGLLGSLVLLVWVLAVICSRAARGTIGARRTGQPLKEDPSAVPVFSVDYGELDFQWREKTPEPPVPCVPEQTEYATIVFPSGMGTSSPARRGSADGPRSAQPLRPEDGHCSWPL

IC50	SMILES
0.87 µM	Cc1cccc2c(CC3NC(=O)[C@H](CC(=O)O)NC(=O)[C@H](Cc4ccc(O)cc4)NC(=O)[C@H](Cc4ccccc4)NC(=O)CSC[C@@H](C(=O)N[C@@H](C)C(N)=O)NC(=O)[C@H]([C@@H](C)O)NC(=O)[C@H](C(C)C)NC(=O)[C@H](CC(C)C)NC(=O)[C@H](CCCNC(=N)N)NC(=O)[C@@H](CC(C)C)NC(=O)[C@H](C)N(C)C(=O)[C@H](CCCNC(=N)N)NC(=O)[C@H](Cc4ccc(-c5ccccc5)cc4)NC(=O)[C@H](C(C)C)NC3=O)n[nH]c12 (mixture of isomers) [Compound 1105]
0.04 µM	CC(C)C[C@@H]1NC(=O)[C@H](CCCNC(=N)N)NC(=O)[C@@H](CC(C)C)NC(=O)[C@H](C)N(C)C(=O)[C@H](CCCNC(=N)N)NC(=O)[C@H](Cc2ccc(-c3ccccc3)cc2)NC(=O)[C@H](C(C)C)NC(=O)[C@H](Cc2c[nH]c3ccccc23)NC(=O)[C@H](CC(=O)O)NC(=O)[C@H](Cc2ccc(O)cc2)NC(=O)[C@H](Cc2ccccc2)NC(=O)CSC[C@@H](C(=O)NCC(N)=O)NC(=O)[C@H](CO)NC(=O)[C@H](C(C)C)NC1=O [Compound 1017] ({CH2CO}-FYDWV[Bip]R[NMeA][dL]RLVSCG-NH2; thioether N-14)
0.12 µM	CC(C)C[C@@H]1NC(=O)[C@H](CCCNC(=N)N)NC(=O)[C@@H](CCc2ccccc2)NC(=O)[C@H](C)N(C)C(=O)[C@H](CCCNC(=N)N)NC(=O)[C@H](Cc2ccc(-c3ccccc3)cc2)NC(=O)[C@H](C(C)C)NC(=O)[C@H](Cc2c[nH]c3ccccc23)NC(=O)[C@H](CC(=O)O)NC(=O)[C@H](Cc2ccc(O)cc2)NC(=O)[C@H](Cc2ccccc2)NC(=O)CSC[C@@H](C(=O)NCC(N)=O)NC(=O)[C@H](CO)NC(=O)[C@H](C(C)C)NC1=O [Compound 1018] ({CH2CO}-FYDWV[Bip]R[NMeA][d(hPhe)]RLVSCG-NH2; thioether N-14)
0.36 µM	CC(C)C[C@@H]1NC(=O)[C@H](CCCNC(=N)N)NC(=O)[C@@H](CC(N)=O)NC(=O)[C@H](C)N(C)C(=O)[C@H](CCCNC(=N)N)NC(=O)[C@H](Cc2ccc(-c3ccccc3)cc2)NC(=O)[C@H](C(C)C)NC(=O)[C@H](Cc2c[nH]c3ccccc23)NC(=O)[C@H](CC(=O)O)NC(=O)[C@H](Cc2ccc(O)cc2)NC(=O)[C@H](Cc2ccccc2)NC(=O)CSC[C@@H](C(=O)NCC(N)=O)NC(=O)[C@H](CO)NC(=O)[C@H](C(C)C)NC1=O [Compound 1019] ({CH2CO}-FYDWV[Bip]R[NMeA][dN]RLVSCG-NH2; thioether N-14)

Second part, the compound before the results:

SMILES	IC50
CC(C)C[C@@H]1NC(=O)[C@H](Cc2c[nH]c3ccccc23)NC(=O)[C@H](CC(=O)O)NC(=O)[C@H](Cc2ccc(O)cc2)NC(=O)[C@H](Cc2ccccc2)NC(=O)CSC[C@@H](C(=O)NCC(N)=O)NC(=O)[C@H](CO)NC(=O)[C@H](C(C)C)NC(=O)[C@H](CC(C)C)NC(=O)[C@H](CC(N)=O)NC(=O)[C@H](CO)NC(=O)[C@H](C)N(C)C(=O)[C@H](C(C)C)NC(=O)[C@H](Cc2ccc(-c3ccccc3)cc2)NC1=O [Compound 1007] ({CH2CO}-FYDWL[Bip]V[NMeA]SNLVSCG-NH2; thioether N-14)	0.26 µM
CC(C)C[C@@H]1NC(=O)[C@H](C(C)C)NC(=O)[C@H](Cc2ccccc2)NC(=O)[C@H](CC(=O)O)N(C)C(=O)[C@H](CCCNC(=N)N)NC(=O)[C@H](Cc2ccc(-c3ccccc3)cc2)NC(=O)[C@H](C(C)C)NC(=O)[C@H](Cc2c[nH]c3ccccc23)NC(=O)[C@H](CC(=O)O)NC(=O)[C@H](Cc2ccc(O)cc2)NC(=O)[C@H](Cc2ccccc2)NC(=O)CSC[C@@H](C(=O)NCC(N)=O)NC(=O)[C@H](CO)NC(=O)[C@H](C(C)C)NC1=O [Compound 1008] ({CH2CO}-FYDWV[Bip]R[NMeD]FVLVSCG-NH2; thioether N-14)	0.7 µM
CC(C)C[C@@H]1NC(=O)[C@H](CCCNC(=N)N)NC(=O)[C@H](Cc2cn(CC(=O)O)c3ccccc23)NC(=O)[C@H](C)N(C)C(=O)[C@H](CCCNC(=N)N)NC(=O)[C@H](Cc2ccc(-c3ccccc3)cc2)NC(=O)[C@H](C(C)C)NC(=O)[C@H](Cc2c[nH]c3ccccc23)NC(=O)[C@H](CC(=O)O)NC(=O)[C@H](Cc2ccc(O)cc2)NC(=O)[C@H](Cc2ccccc2)NC(=O)CSC[C@@H](C(=O)NCC(N)=O)NC(=O)[C@H](CO)NC(=O)[C@H](C(C)C)NC1=O [Compound 1011] ({CH2CO}-FYDWV[Bip]R[NMeA][Trp(1-CH2COOH)]RLVSCG-NH2; thioether N-14)	0.1 µM
CC(C)C[C@@H]1NC(=O)[C@H](CCCNC(=N)N)NC(=O)[C@H](Cc2cccc3ccccc23)NC(=O)[C@H](C)N(C)C(=O)[C@H](CCCNC(=N)N)NC(=O)[C@H](Cc2ccc(-c3ccccc3)cc2)NC(=O)[C@H](C(C)C)NC(=O)[C@H](Cc2c[nH]c3ccccc23)NC(=O)[C@H](CC(=O)O)NC(=O)[C@H](Cc2ccc(O)cc2)NC(=O)[C@H](Cc2ccccc2)NC(=O)CSC[C@@H](C(=O)NCC(N)=O)NC(=O)[C@H](CO)NC(=O)[C@H](C(C)C)NC1=O [Compound 1012] ({CH2CO}-FYDWV[Bip]R[NMeA][1Nal]RLVSCG-NH2; thioether N-14)	0.13 µM
CC(C)C[C@@H]1NC(=O)[C@H](CCCNC(=N)N)NC(=O)C(C)(C)NC(=O)[C@H](C)N(C)C(=O)[C@H](CCCNC(=N)N)NC(=O)[C@H](Cc2ccc(-c3ccccc3)cc2)NC(=O)[C@H](C(C)C)NC(=O)[C@H](Cc2c[nH]c3ccccc23)NC(=O)[C@H](CC(=O)O)NC(=O)[C@H](Cc2ccc(O)cc2)NC(=O)[C@H](Cc2ccccc2)NC(=O)CSC[C@@H](C(=O)NCC(N)=O)NC(=O)[C@H](CO)NC(=O)[C@H](C(C)C)NC1=O [Compound 1013] ({CH2CO}-FYDWV[Bip]R[NMeA][Aib]RLVSCG-NH2; thioether N-14)	0.16 µM
CC(C)C[C@@H]1NC(=O)[C@H](CCCNC(=N)N)NC(=O)[C@H](Cc2cccc(Cl)c2)NC(=O)[C@H](C)N(C)C(=O)[C@H](CCCNC(=N)N)NC(=O)[C@H](Cc2ccc(-c3ccccc3)cc2)NC(=O)[C@H](C(C)C)NC(=O)[C@H](Cc2c[nH]c3ccccc23)NC(=O)[C@H](CC(=O)O)NC(=O)[C@H](Cc2ccc(O)cc2)NC(=O)[C@H](Cc2ccccc2)NC(=O)CSC[C@@H](C(=O)NCC(N)=O)NC(=O)[C@H](CO)NC(=O)[C@H](C(C)C)NC1=O [Compound 1014] ({CH2CO}-FYDWV[Bip]R[NMeA][Phe(3-Cl)]RLVSCG-NH2; thioether N-14)	0.2 µM
CC(C)C[C@@H]1NC(=O)[C@H](CCCNC(=N)N)NC(=O)[C@H](Cc2ccc(F)c(F)c2)NC(=O)[C@H](C)N(C)C(=O)[C@H](CCCNC(=N)N)NC(=O)[C@H](Cc2ccc(-c3ccccc3)cc2)NC(=O)[C@H](C(C)C)NC(=O)[C@H](Cc2c[nH]c3ccccc23)NC(=O)[C@H](CC(=O)O)NC(=O)[C@H](Cc2ccc(O)cc2)NC(=O)[C@H](Cc2ccccc2)NC(=O)CSC[C@@H](C(=O)NCC(N)=O)NC(=O)[C@H](CO)NC(=O)[C@H](C(C)C)NC1=O [Compound 1015] ({CH2CO}-FYDWV[Bip]R[NMeA][Phe(3,4-F2)]RLVSCG-NH2; thioether N-14)	0.16 µM
CC(C)C[C@@H]1NC(=O)[C@H](CCCNC(=N)N)NC(=O)[C@@H](C)NC(=O)[C@H](C)N(C)C(=O)[C@H](CCCNC(=N)N)NC(=O)[C@H](Cc2ccc(-c3ccccc3)cc2)NC(=O)[C@H](C(C)C)NC(=O)[C@H](Cc2c[nH]c3ccccc23)NC(=O)[C@H](CC(=O)O)NC(=O)[C@H](Cc2ccc(O)cc2)NC(=O)[C@H](Cc2ccccc2)NC(=O)CSC[C@@H](C(=O)NCC(N)=O)NC(=O)[C@H](CO)NC(=O)[C@H](C(C)C)NC1=O [Compound 1016] ({CH2CO}-FYDWV[Bip]R[NMeA][dA]RLVSCG-NH2; thioether N-14)	0.13 µM
